The source of these data is patent US20260256747A1, “ARYL-TRIAZOLYL AND RELATED GPR84 ANTAGONISTS AND USES THEREOF” (Liminal BioSciences Limited, priority 2022, published 2026).

As a reminder, the pIC50 is −log10 of the IC50, conventionally taken in molar units. Low readings indicate a high IC50, high ones a low IC50. A word on the inhibition: it is the percentage by which the read-out fell short of the control. A lower inhibition goes with a weak effect.

The target in this test is T1, human GPR84 receptor (Homo sapiens, UniProt Q9NQS5).
T1 construct: host or cells: HEK293 cells, transient transfection
The experiment in a line: Gαi biosensor BRET assay in HEK293 cells transfected with GPR84, stimulated with the GPR84 agonist ZQ-16. In kind it is cell-based. Particulars: 200 nmol/L ZQ-16; for inhibition at 10 µM / inhibition at 2 µM: HEK293, single concentration; for inhibition at 10 µM: concentration class F = 10 μM; for inhibition at 2 µM: concentration class A = 2 μM. The text has this:
Background—The following assays can be used for determination of GPR84 activation in living HEK293 cells. The Gαi BRET biosensor (Gagnon et al., 2018; Gales et al., 2006. Nat Struct Mol Biol. 13, 778-86; Saulieres et al., 2012. Nat Chem Biol. 8, 622-30) allows to directly monitor GPR84-mediated activation of Gαi. The Gαi biosensor consists of a Rluc8-tagged Gαi2 subunit, a GFP10-tagged Gγ2 subunit, and an untagged GB1. Agonist stimulation and GPR84 activation triggers a physical separation between the RLuc8-Gαi donor and the GFP10-Gγ2 acceptor, resulting in a decrease in BRET signal whose amplitude is correlated to ligand efficacy (Gales et al., 2006). Moreover, signaling functions of GPCRs are tightly regulated by endocytosis, the targeting of receptors to endosomes and their sorting to lysosomes or recycling to the plasma membrane. The early endosomes (EEs) trafficking assay (Namkung et al., 2016. Nat Commun. 7, 12178) uses Rluc8-tagged GPR84 and Renilla GFP (rGFP) attached to the FYVE domain from human endofin/zinc finger FYVE domain-containing protein 16, which binds phosphatidylinositol 3-phosphate in EEs. Agonist stimulation of GPR84-Rluc8 leads to trafficking of the receptor to EEs, and ensuing increase of the donor concentration relative to the rGFP-FYVE acceptor anchored in the same cellular compartment, and thus results in an increase in BRET signal.
Plasmids—The cDNA clones for human GPR84 receptor, human Gαi2, Gβ1, and Gγ2 were obtained from the cDNA Resource Center (www.cdna.org). GFP10 (F64L, S147P, S202F and H231L variant of Aequorea victoria Green Fluorescent Protein) gBlocks gene fragments (Integrated DNA Technologies, IA) and linker were inserted in frame at the N-terminus of human Gγ2. Rluc8 (A^55T, Cl24A, S130A, K136R, A^143M, M185V, M253L, and S287L variant of the Renilla reniformis luciferase) gBlocks gene fragment was inserted with linkers in frame in between residues 91 and 92 of Gαi2 or at the C-terminus of GPR84. The FYVE domain from human endofin (residues Q739 to K806) attached in frame at the C terminus of a humanized Renilla GFP (rGFP), were synthesized as gBlocks gene fragments.
Bioluminescence Resonance Energy Transfer (BRET) Measurement-HEK293 cells were transfected with GPR84-Rluc8 and rGFP-FYVE for the EEs trafficking biosensor or with GPR84, Gαi2-Rluc8, GFP10-Gγ2, and Gβ1 for the Gαi biosensor. The following day, transiently transfected cells were seeded in 96-well white clear bottom microplates coated with poly-D-lysine and left in culture for 24 hours. Cells were washed once with Tyrode's buffer (140 mmol/L NaCl, 1 mmol/L CaCl2, 2.7 mmol/L KCl, 0.49 mmol/L MgCl2, 0.37 mmol/L NaH2PO4, 5.6 mmol/L glucose, 12 mmol/L NaHCO3, and 25 mmol/L HEPES, pH 7.5) before performing assays in Tyrode's buffer. Test compounds were incubated with cells for 5 (Gai) or 15 (EEs) minutes at 37° C. before addition of 200 nmol/L of the GPR84 agonist ZQ-16 (2-(Hexylthio)-6-hydroxy-4 (3H)-pyrimidinone) for 5 minutes at room temperature (Gai) or 30 minutes at 37° C. (EEs). The Rluc8 substrate coelenterazine 400A (Prolume, Lakeside, AZ) was added at a final concentration of 5 μmol/L and BRET readings were collected using an Infinite M1000 microplate reader (Tecan, Morrisville, NC). BRET2 readings between Rluc8 and GFP10 or rGFP were collected by sequential integration of the signals detected in the 370 to 450 nm (Rluc8) and 510 to 540 nm (GFP10, rGFP) windows. The BRET signal was calculated as the ratio of light emitted by acceptor (GFP10, rGFP) over the light emitted by donor (Rluc8). The values were corrected to net BRET by subtracting the background BRET signal obtained in cells transfected with Rluc8 constructs alone. Ligand-promoted net BRET values were calculated by subtracting vehicle-induced net BRET from ligand-induced net BRET.
Background: In BRET a luciferase serves as donor, and the signal depends on an acceptor being close.

Molecules are shown by their SMILES. pIC50: −log10 of the molar value.

T1 sequence (Q9NQS5 whole entry): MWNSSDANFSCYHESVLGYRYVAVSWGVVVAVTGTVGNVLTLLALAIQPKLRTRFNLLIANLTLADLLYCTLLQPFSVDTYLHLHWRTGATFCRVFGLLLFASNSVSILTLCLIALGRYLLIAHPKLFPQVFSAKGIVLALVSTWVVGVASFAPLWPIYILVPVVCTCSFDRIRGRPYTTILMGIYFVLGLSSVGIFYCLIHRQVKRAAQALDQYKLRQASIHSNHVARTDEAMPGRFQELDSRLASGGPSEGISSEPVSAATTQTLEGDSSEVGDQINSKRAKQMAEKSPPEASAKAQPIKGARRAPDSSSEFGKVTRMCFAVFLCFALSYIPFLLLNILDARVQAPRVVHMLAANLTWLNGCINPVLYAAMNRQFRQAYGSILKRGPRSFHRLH

In turn, `OC1CC2(C1)CN(c1cnc(-c3cn(CC4OCC5(CC5)CO4)nn3)c(OC3CC3)c1)C2` (stereo not shown) [Compound I-31] gave a pIC50 of no less than 6.52 and an inhibition at 10 µM greater than 75%. `C(#Cc1ccc(-c2cn(CC3OCC4(CC4)CO3)nn2)c(C2CC2)c1)COC1CC1` [Compound I-4] had a pIC50 of 6.00 to 6.52 and an inhibition at 2 µM greater than 75%. Regarding `CN(C)C(=O)Cn1cc(-c2ncc(C#CC3CC3)cc2OC2CC2)nn1` [Compound I-23, 2-(4-(3-cyclopropoxy-5-(cyclopropylethynyl)pyridin-2-yl)-1H-1,2,3-triazol-1-yl)-N,N-dimethylacetamide], the pIC50 was 5.52 to 6.00 and the inhibition at 10 µM is greater than 75%. Take `CN(C)C(=O)Cn1cc(-c2nnc(-c3cc(C#CC4CC4)ccc3F)o2)nn1` [Compound I-262]: the inhibition at 10 µM was no more than 25%. The compound `CC1(C)COC(Cn2cc(-c3ncc(C#N)cc3OC3CC3)nn2)OC1` [Compound I-14] had a pIC50 of 6.00 to 6.52 and an inhibition at 10 µM greater than 75%. In the case of `CCN(CC)c1cc(N2CC(C)(CO)C2)ccc1-c1cn(CC2OCC3(CC3)CO2)nn1` [Compound I-147], the inhibition at 10 µM was greater than 75%. `FC1(F)CC12CN(CC#Cc1cnc(-c3cn(CC4OCC5(CC5)CO4)nn3)c(OC3CC3)c1)C2` [Compound I-16]: the pIC50 was no less than 6.52 and the inhibition at 2 µM was greater than 75%.

For the compound `CC1(C)COC(Cn2cc(Cc3cc(C#CC4CC4)ccc3C(F)(F)F)nn2)OC1` [Compound I-58], the inhibition at 10 µM was greater than 75%. The compound `c1ccc(CN2CCN(c3cnc(-c4cn(CC5OCC6(CC6)CO5)cn4)c(OC4CC4)c3)CC2)nc1` [Compound I-211] registered an inhibition at 10 µM of 25 to 50%. In turn, `CC(C)(O)C#Cc1cnc(-c2cn(CC3OCC(C)(C)CO3)nn2)c(OC2CC2)c1` [Compound I-8] gave a pIC50 of 6.00 to 6.52 and an inhibition at 10 µM greater than 75%. `O=C(Cn1cc(-c2ncc(C#CC3CC3)cc2OC2CC2)nn1)N1CCOCC1` [Compound I-268]: the inhibition at 10 µM was 25 to 50%. Take `CN(C)c1cc(N2CC3(COC3)C2)c(F)cc1-c1cn(CC2OCC3(CC3)CO2)nn1` [Compound I-25]: the pIC50 was no less than 6.52 and the inhibition at 2 µM is greater than 75%.

As for `CCc1cc(C#CCN)ccc1-c1cn(CC2OCC(C)(C)CO2)nn1` [Compound I-2], the pIC50 was 6.00 to 6.52 and the inhibition at 10 µM was greater than 75%.

Regarding `Cc1cc(C#CCN2CC(C)(C)C2)cnc1-c1nnn(CC2OCC(C)(C)CO2)n1` [Compound I-111], the pIC50 was 5.52 to 6.00 and the inhibition at 10 µM was greater than 75%. On to `CN(C)C(=O)COc1cnc(-c2cn(CC(=O)N(C)C)nn2)c(OC2CC2)c1` [Compound I-71], for which the inhibition at 10 µM is no more than 25%.

Take `Cc1ccc(C2CC2)nc1-c1cn(CC2OCC(C)(C)CO2)nn1` [Compound I-11]: the inhibition at 2 µM is no more than 25%. In turn, `CN(C)c1cc(C#CC2(O)CC2)ccc1-c1cn(CC2OCC(C)(C)CO2)nn1` [Compound I-28] showed a pIC50 of no less than 6.52 and an inhibition at 2 µM greater than 75%. In turn, `CN(C)c1cc(N2CC(C)(CO)C2)c(F)cc1-c1cn(CC2OCC3(CC3)CO2)cn1` [Compound I-52] had a pIC50 of no less than 6.52 and an inhibition at 10 µM greater than 75%. `CN(C)C(=O)Cn1cc(-c2nnc(-c3ccc(C#CC4CC4)cc3F)o2)nn1` [Compound I-261] registered an inhibition at 10 µM of no more than 25%. As to `CC1(CO)CN(c2ccc(-c3cn(CC4OCC5(CCC5)O4)nn3)c(CC(F)(F)F)c2)C1` (stereo not shown) [Compound I-144], the inhibition at 10 µM is greater than 75%. The compound `O=C1OC(c2ccc(C#CC3CC3)cc2)CN1CC1CCCCO1` (stereo not shown) [Compound I-65] registered an inhibition at 10 µM of 25 to 50%.

As to `Cc1cc(C#CC2CC2)ccc1-c1cn(Cc2cocn2)nn1` [Compound I-13], the inhibition at 10 µM was no more than 25%.

The compound `O=C(Cn1cc(-c2ncc(C#CC3CC3)cc2OC2CC2)nn1)N1CCCC1` [Compound I-64] showed a pIC50 of 6.00 to 6.52 and an inhibition at 10 µM greater than 75%. Compound `CC1(CO)CN(c2cnc(-c3cn(CC4OCC(F)(F)CO4)nn3)c(OC3CC3)c2)C1` [Compound I-27] had an inhibition at 10 µM of 50 to 75%. `Fc1ccc(C#CC2CC2)cc1-c1nnc(-c2cn(CC3OCC4(CC4)CO3)nn2)o1` [Compound I-258] registered an inhibition at 10 µM of 25 to 50%. Compound `c1ncc(-c2cnc(-c3cn(CC4OCC5(CC5)CO4)nn3)c(OC3CC3)c2)[nH]1` [Compound I-228] gave a pIC50 of no less than 6.52 and an inhibition at 2 µM greater than 75%. `FC1(F)CC12CN(c1cnc(-c3cn(CC4OCC5(CC5)CO4)nn3)c(OC3CC3)c1)C2` [Compound I-18] returned an inhibition at 10 µM of 25 to 50%.

Compound `CC1(C)COC(Cn2cc(C#Cc3ccc(C4CC4)cc3)nn2)OC1` [Compound I-29] registered an inhibition at 10 µM of no more than 25%. Take `Fc1cc(C#CC2CC2)ccc1-c1nnc(-c2cn(CC3OCC4(CC4)CO3)nn2)o1` [Compound I-257]: the inhibition at 10 µM is greater than 75%. For the compound `CN(C)C(=O)Cn1cc(-c2nc(O)c(C#CC3CC3)cc2OC2CC2)nn1` [Compound I-251], the inhibition at 2 µM was no more than 25%. The compound `CC1(C)COC(Cn2cc(C#Cc3ccncc3)nn2)OC1` [Compound I-32] displayed an inhibition at 10 µM of no more than 25%.

Compound `O=C(Cn1cc(-c2ncc(C#CC3CC3)cc2OC2CC2)nn1)N1C[C@@H](O)[C@H](O)C1` [Compound I-246] registered an inhibition at 10 µM of 50 to 75%. On the same count and under the same terms, the figure for `Cc1ccc(C#CC2CC2)cc1-c1nnc(-c2cn(CC3OCC4(CC4)CO3)nn2)o1` [Compound I-255] is 50 to 75%; for `CN(C)C(=O)Cn1cnc(-c2ccc(N3CC(C)(CO)C3)cc2N(C)C)c1` [Compound I-47] it is 50 to 75%. In turn, `O=C(Cn1cc(-c2ncc(C#CC3CC3)cc2OC2CC2)nn1)N1CCCCC1` [Compound I-267] displayed an inhibition at 10 µM greater than 75%.

In turn, `O=C(Cn1cc(-c2c(OC3CC3)cc(C#CC3CC3)c[n+]2[O-])nn1)N1CCCC1` [Compound I-253] gave a pIC50 of 5.52 to 6.00 and an inhibition at 10 µM greater than 75%. For `OC1CC2(C1)CN(CC#Cc1cnc(-c3cn(CC4OCC5(CC5)CO4)nn3)c(OC3CC3)c1)C2` (stereo not shown) [Compound I-22], the pIC50 is no less than 6.52 and the inhibition at 2 µM is greater than 75%. In turn, `CC1(C)COC(Cn2cc(-c3ccc(C#CCOC4CC4)cc3C3CC3)nn2)OC1` [Compound I-3] had a pIC50 of 6.00 to 6.52 and an inhibition at 10 µM greater than 75%.

The compound `O=C(Cn1cncc1-c1ncc(C#CC2CC2)cc1OC1CC1)N1CCCC1` [Compound I-243] had an inhibition at 10 µM of no more than 25%.

`CC(O)C1(C)CN(c2ccc(-c3cn(CC4OCC5(CC5)CO4)nn3)c(N(C)C)c2)C1` (stereo not shown) [Compound I-30] had a pIC50 of no less than 6.52 and an inhibition at 2 µM greater than 75%. The compound `C(#CC1CC1)c1cnc(-c2cncn2C[C@H]2CCCCO2)c(OC2CC2)c1` [Compound I-53] returned an inhibition at 10 µM of no more than 25%. Take `COc1ccc(C#Cc2cnn(CC3OCC(C)(C)CO3)n2)cc1` [Compound I-46]: the inhibition at 10 µM was no more than 25%. `CCc1cc(N2CCN(Cc3ccccn3)CC2)ccc1-c1cn(CC2OCC3(CC3)CO2)cn1` [Compound I-56] showed a negative logarithm of the IC50 (pIC50) of no less than 6.52 and an inhibition at 10 µM greater than 75%.
